Experiment [1] concerns emetic response to apomorphine hydrochloride. The experiment in a line: Abolition of the emetic response to apomorphine hydrochloride. The class given is in vivo. Particulars: Canis lupus familiaris, sc; S.C.; dog; apomorphine hydrochloride 0.1 mg/kg subcutaneously; active doses (mg/kg); read-out: Anti-Emetic ED 50. As to the method:
2. Compounds were also tested for abolition of the emetic response to apomorphine hydrochloride (0.1 mg/kg subcutaneously) in the dog

In a further experiment the test system is dopamine receptor. The experiment in a line: Inhibition of stereotype behaviour induced by apomorphine. As to conditions: for Inhibition of Stereo-Type Behaviour, active dose: S.C., rat, active doses (mg/kg); for Inhibition of Stereo-Type Behaviour, number of rats: at 50mg S.C. The class given is in vivo, rat. The method, then: (§1) 1. Compounds prepared in the Examples were tested for the following pharmacological activities in the rat:
(c) Inhibition of stereotype behaviour induced by apomorphine.
This is indicative of dopamine receptor blockade in the central nervous system.
The method of Ernst A. M. (1967) Pyschopharmocologia (Berl.) 10 pp. 316-323 was followed.

Experiment [2] has as its system apomorphine induced delay in gastric emptying. Nature of the experiment: Increase in gastric emptying - reversal of apomorphine induced delay in gastric emptying of a test meal. Type of experiment: in vivo, rat. As to conditions: S.C.; rats with chronic gastric fistula; Apomorphine HCl 5 mg/kg subcutaneously 15 minutes prior; active doses (mg/kg). As to the method:
as §1
(b) Increase in gastric emptying-reversal of apomorphine induced delay in gastric emptying of a test meal.
Rats equipped with chronic gastric fistula were used and it was through this that 5 ml of a test meal (5 ml phosphate buffer at pH 9) was administered and recovered. The % recovery of the standard meal after remaining in the stomach for 10 minutes was taken as an index of gastric emptying. Delay in gastric emptying was induced by the administration of Apomorphine HCl (5 mg/kg subcutaneously) and was given 15 minutes prior to the administration of the Compound. The % recoveries of the test meal was determined at 15-25 and 45-55 minutes post dosing with the Compound and compared with vehicle only dosed animals set up simultaneously. Six animals were used for each group.

The test system of another experiment is intragastric pressure. Nature of the experiment: Increase in intragastric pressure. The class given is in vivo, rat. Particulars: conscious restrained rats with gastric fistula, 40 minutes after administration, active doses (mg/kg). The method, then: as §1
(a) Increase in intragastric pressure
Intragastric pressure changes were recorded from previously starved conscious and restrained rats using a saline filled catheter inserted into the lumen of the stomach via a permanent gastric fistula. The catheter was connected to a physiological pressure transducer and pressure changes recorded on a hot wire pen recorder. In each animal a pre-dose period of 40 minutes was allowed to obtain a measure of spontaneous activity. An index of activity was obtained by measuring the average height of pressure waves during 10 minute periods. Values for 4 such periods were obtained during assessment of spontaneous activity and for the 40 minute period after the administration of the Compounds. Student "t" test was applied to the difference in average values obtained for spontaneous and post Compound activity.

A value given as a limit tells only on which side of the number the result lay.

Experimental findings from patent publication US4213983A, “Treating gastro-intestinal disorders and emesis with n-(heterocyclic substituted) benzamides” (Beecham Group Limited, priority 1976, dated 1980) are described below.

As for `COc1cc(N)c(Cl)cc1C(=O)NN1CCN2CCCCC2C1` (stereo not drawn) [Example 12], in experiment [1], the ED50 turned out to be 2 mg/kg.

With `COc1cc(N)c(Cl)cc1C(=O)NC1CCN2CCCC2C1` (stereo not drawn) [Example 4, 4-Amino-5-chloro-2-methoxy-N-(7-octahydro-indolizinyl)-benzamide], in the experiment with dopamine receptor, the “Inhibition of Stereo-Type Behaviour, active dose” value (from here on “Inhibition … active dose”) amounted to 50 mg and the “Inhibition of Stereo-Type Behaviour, number of rats” value is 4 out of 7 rats. Moreover, the “Increase in Gastric Emptying, active dose” value (shortened to “Increase in Gastric Emptying”) in experiment [2] amounted to 50 mg. Besides, the “Increase in Intra-Gastric Pressure, active dose” value in the experiment on intragastric pressure (S.C.) was 5 mg. The ED50 in experiment [1] is less than 2 mg/kg.

For `COc1cc(N)c(Cl)cc1C(=O)NC1CCN2CCCCC2C1` (stereo not drawn) [Example 2, 4-Amino-5-chloro-2-methoxy-N-(2-quinolizidinyl)-benzamide], the “Inhibition … active dose” value in the experiment on dopamine receptor came to 15 mg. Moreover, the “Increase in Gastric Emptying” value in experiment [2] turned out to be 25 mg. Also, the “Increase in Intra-Gastric Pressure, active dose” value with intragastric pressure (P.O.) turned out to be 50 mg; in the experiment with intragastric pressure (S.C.) it was 2.5 mg. Also, the ED50 in experiment [1] was determined as 0.7 mg/kg.

As to `COc1cc(N)c(Cl)cc1C(=O)NC1CCCN2CCCCC12` (stereo not drawn) [Example 8b, 4-Amino-5-chloro-2-methoxy-N-(1-quinolizidinyl)-benzamide], in the experiment with dopamine receptor, the “Inhibition … active dose” value came to 50 mg. The ED50 in experiment [1] was less than 2 mg/kg.

As to `COc1cc(N)c(Cl)cc1C(=O)NC1CCN2C(C)CCCC2C1` (stereo not drawn) [Example 16, 4-Amino-5-chloro-2-methoxy-N-(6-methyl-2-quinolizidinyl)-benzamide], in the experiment with intragastric pressure (S.C.), the “Increase in Intra-Gastric Pressure, active dose” value was determined as 1 mg.

In the case of `COc1cc(N)c(Cl)cc1C(=O)NC1CCN2CCc3ccccc3C2C1` (stereo not drawn) [Example 10, 4-Amino-5-chloro-N-[2-(2H-benzo[a]-quinolizine-1,3,4,6,7,11b-hexahydro)]-2-methoxy-benzamide], in experiment [2], the “Increase in Gastric Emptying” value was determined as 50 mg.

With `COc1cc(N)c(Cl)cc1C(=O)NC1CC2CCCCN2C1` (stereo not drawn) [Example 14, 4-Amino-5-chloro-2-methoxy-N-(2-octahydroindolizinyl)-benzamide], the “Inhibition … active dose” value in the experiment on dopamine receptor came to 50 mg. Further, the “Increase in Gastric Emptying” value in experiment [2] was 50 mg. The ED50 in experiment [1] is less than 2 mg/kg.

Consider `COc1cc(N)c(Cl)cc1C(=O)NC1CCC2CCCCN2C1` (stereo not drawn) [Example 6, 4-Amino-5-chloro-2-methoxy-N-(3-quinolizidinyl)-benzamide], for which, in the experiment with dopamine receptor, the “Inhibition … active dose” value is on record as 50 mg and the “Inhibition of Stereo-Type Behaviour, number of rats” value was 3 out of 7 rats. The ED50 in experiment [1] is 1.4 mg/kg.
